Experimental data published in patent US20050124618A1, “Methods of modulating angiogenesis and cancer cell proliferation” (priority 2003, published 2005).
Entries after “also recorded” stand apart in the source; their conditions may differ. Like-named read-outs stand apart in the source and are kept apart here.

Legend:
9L rat gliosarcoma cells = experiment: 9L cell proliferation assay (cell counting); assay type: cell-based
Experimental: Culture Conditions: 9L rat gliosarcoma cells were purchased from ATC (Gaithersburg, Md.) and were maintained in DMEM (Invitrogen) supplemented with 10% heat-inactivated fetal bovine serum (FBS), penicillin (10 IU/ml), streptomycin (10 μg/ml) and 10% non-essential amino acids (all purchased from Invitrogen). Cells were maintained at 37° C. in a humidified incubator containing 5% CO2. They were grown in medium containing 10% FBS, which was then replaced with serum-free medium (give type and source) where 9L cells grow exponentially.
Cell Proliferation Assays: Proliferation studies were performed with cultures plated at a density that ensured exponential growth for at least 5 days. Growth medium were generally replaced by serum free medium 24 hr after plating. […] The concentration of the ethanol added to the media never exceeded 0.1%. Cells were harvested by exposure to a solution of 0.05% Trypsin/EDTA and counted using a hemocytometer.

20-HETE [1] = experiment: 20-HETE formation in electrically stimulated skeletal (TA) muscle of rats; assay type: in vivo, rat
Experimental: Experimental protocols and tissue preparation: After a 24-h recovery period, the implanted stimulator was activated by momentary closure of the magnetic reed switch using a small hand-held magnet. […] Contractions of the extensor digitorum longus (EDL) and tibialis anterior (TA) muscles were automatically initiated at 9 AM each day and sustained for 8 h/day over a consecutive 7-day period. At the end of the stimulation period, the animals were euthanized by an overdose of pentobarbital sodium (100 mg/kg ip), and the EDL and TA muscles were harvested for analysis as previously described (Greene A S et al., Hypertension 15: 779-783, 1990; and Parmentier J H et al., Hypertension 37: 623-629, 2001).
The rats were divided in four groups. […] This dose was chosen based on our previous results (Kehl F et al., Am J Physiol Heart Circ Physiol 282: H1556-H1565, 2002).
To determine the contribution of VEGF to the angiogenesis induced by electrical stimulation, six rats in group 3 were treated with 3 mg/kg ip injections of a monoclonal VEGF-neutralizing antibody (Texas Biotechnology; Houston, Tex.) during the period of electrical stimulation. The protocol for administration of VEGF-neutralizing antibody was modified from Zheng W et al. (Circ Res 85: 192-198, 1999), and this dose was based on our previous results (Amaral S L et al., Microcirculation 8: 57-67, 2001). After the stimulation period was started, the rats received intraperitoneal injections on days 3, 5, and 7 (0.6 mg/100 g).
Muscle preparations for measurement of 20-HETE: The 100-200 mg of frozen TA muscle were homogenized in a solution containing 1 ml of acidified water and 50 μl of an internal standard, WIT-002, which was synthesized and kindly provided by Taisho Pharmaceutical. Ethyl acetate (3 ml, Fisher Scientific; Pittsburgh, Pa.) was added to the mixture and gently vortexed. The homogenized tissues were then centrifuged at 3,000 revolutions/min for 2 min. With the use of a glass Pasteur pipet, the top layer was removed and transferred to a sterile glass vial, and the samples were dried under nitrogen and stored at −80° C.
Labeling of samples and fluorescent detection of 20-HETE: Detection of 20-HETE was performed as previously described (Ma Y H et al., Am J Physiol Regul Integr Comp Physiol 267: R579-R589, 1994). Samples, which were extracted and dried under argon, were resuspended in 20 μl of acetonitrile containing 36.4 mM 2-(2,3-napthalimino)ethyl trifluoromethanesulfonate, and N,N-diisopropylethylamine (10 μl) was added as a catalyst. The sample was reacted for 30 min at room temperature, dried under argon, resuspended in 1 ml of 40% acetonitrile-water, and applied to a Sep-Pak Vac column. The column was washed with 6 ml of 50% acetonitrile-water solution to remove unreacted dye, eluted with 500 μl of ethyl acetate, dried under argon, and resuspended in 100 μl of the HPLC mobile phase [methanol-water-acetic acid, 82:18:0.1 (vol/vol)]. A 25-μl aliquot of the derivatized sample was separated on a 4.6×250-mm Symmetry C18 reverse-phase HPLC column (Waters) isocratically at a rate of 1.3 ml/min using methanol-water-acetic acid (82:18:0.1 (vol/vol)) as the mobile phase. Fluorescence intensity monitored using an in-line fluorescence detector (model number L-7480, Hitachi; Naperville, Ill.) at medium gain sensitivity. The amount of 20-HETE in the sample was determined by comparing the area of the 20-HETE peak with that of the internal standard (WIT-002).

20-HETE [2] = conditions: cited from earlier work
U251 human glioma cells = experiment: [3H]thymidine incorporation in U251 cells; assay type: cell-based; conditions: for inhibition at 10 µM: Homo sapiens
Experimental: [^3H]Thymidine Incorporation Studies: Thymidine incorporation studies were performed with cells grown in 35-mm culture dishes. […] Palmitic acid and EtOH served as fatty acid and vehicle controls, respectively. At the end of the pulse, the medium was aspirated and the cells rinsed twice with cold 1× phosphate buffered saline (PBS). The rinsed cultures were fixed by exposure to cold 5% trichloracetic acid overnight at 4° C., after which fixed cells were extracted as described previously (Scholler et al., Mol. Pharmacol. 45: 944-954, 1994). A second set of non-fixed dishes was treated with 0.05% trypsin/EDTA to estimate cell numbers. [^3H]thymidine was detected by scintillation counting and expressed as dpm/10^3 cells.

CCCCc1ccc(N=CNO)c(C)c1 [HET0016, N-hydroxy-N′-(4-butyl-2 methylphenyl) formamidine]
reduction of proliferation of 9L cells (9L rat gliosarcoma cells; 10 μM HET0016, 48 hrs): 60%
effect on EGF-stimulated growth of 9L cells at 24 hr (9L rat gliosarcoma cells; EGF 200 ng/ml + 10 μM HET0016, 24 hr): prevented the effects of EGF on cells growth
effect on EGF-stimulated growth of 9L cells at 48 hr (9L rat gliosarcoma cells; EGF 200 ng/ml + 10 μM HET0016, 48 hr): reduced the number of cells
effect on EGF-induced growth of 9L cells (9L rat gliosarcoma cells; EGF 200 ng/ml + HET0016): almost abolished
inhibition of 9L cell growth (9L rat gliosarcoma cells; HET0016 10 nM): some degree of inhibition of cell growth was apparent even though the difference from control was not significant
cytotoxicity to 9L cells (cell detachment, dead cells) (9L rat gliosarcoma cells; HET0016 100 μM): may have a direct cytotoxic effect
effect on 9L cell number (9L rat gliosarcoma cells; HET0016 100 μM): dramatic reduction in cell number
reduction of 9L cell number (9L rat gliosarcoma cells; HET0016 1 and 10 μM, both 24 and 48 hr): 30-40%
dose dependence of inhibition of 9L growth (9L rat gliosarcoma cells; various concentrations of HET0016): decreased the proliferation of 9L cells in a dose-related manner; also recorded: produced a dose dependent inhibition
effect on the increase of 20-HETE formation induced by electrical stimulation (20-HETE [1]; 7 days of electrical stimulation, chronic treatment): completely blocked
20-HETE formation in skeletal muscle, unstimulated side (20-HETE [1]; rats treated 7 days, TA muscle): 110.26±28.36 ng/g muscle
20-HETE formation in skeletal muscle, stimulated side (20-HETE [1]; rats treated 7 days, TA muscle, 7 days electrical stimulation): 102.1±22.3 ng/g muscle
effect on basal formation of 20-HETE in skeletal muscle (20-HETE [1]; treatment for 7 days): did not change the basal formation
ability to reduce 20-HETE levels in vivo (20-HETE [2]): reduce 20-HETE levels in vivo
inhibition of DNA synthesis ([3H]thymidine incorporation/uptake) (U251 human glioma cells; 10 μM HET0016, approximately 48 hr): 66%
inhibition at 10 µM (U251 human glioma cells; U-251, 10 μM HET0016, approximately 24 hr, read-out: inhibition of DNA synthesis ([3H]thymidine incorporation)): 50%
inhibition at 10 µM (U251 human glioma cells; U-251, 10 μM HET0016, approximately 48 hr, read-out: inhibition of DNA synthesis ([3H]thymidine incorporation/uptake)): 65%
